According to ChEMBL document CHEMBL1201862, “PubChem BioAssay data set” (2004):
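Where inhibition never reached the appropriate level, the endpoint shown equals the highest concentration tested. Otherwise, values were interpolated linearly from a five-concentration, 48-hour dose response in 96-well plates. GI50 = concentration required for 50% inhibition of growth.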 Calls of active or inactive are those of the source. No stated cut-off is given here; in the data, active = GI50 up to about 1.1 µM and inactive = higher.

How the values were obtained:
Assay in all cases: NCI-60 cell line screen, 48 h
[1] = system: SR
[2] = system: SF-539
[3] = system: NCI-H226
[4] = system: OVCAR-8
[5] = system: NCI-H460
[6] = system: HCC 2998
[7] = system: SF-268
[8] = system: A549
[9] = system: TK-10
[10] = system: K562
[11] = system: KM12
[12] = system: UACC-257
[13] = system: PC-3
[14] = system: SN12C
[15] = system: SK-MEL-2
[16] = system: SW-620
[17] = system: HOP-62
[18] = system: SF-295
[19] = system: HT-29
[20] = system: EKVX
[21] = system: HL-60
[22] = system: MOLT-4
[23] = system: NCI-H522
[24] = system: 786-0
[25] = system: U-251
[26] = system: HCT-15
[27] = system: Hs-578T
[28] = system: A498
[29] = system: CCRF-CEM
[30] = system: RPMI-8226
[31] = system: OVCAR-3
[32] = system: SK-MEL-5
[33] = system: Malme-3M
[34] = system: OVCAR-5
[35] = system: ACHN
[36] = system: SK-MEL-28
[37] = system: MCF7
[38] = system: NCI-H23
[39] = system: SNB-75
[40] = system: HCT-116
[41] = system: RXF 393
[42] = system: CAKI-1
[43] = system: M14
[44] = system: MDA-N
[45] = system: DU-145
[46] = system: COLO 205
[47] = system: LOX IMVI
[48] = system: NCI/ADR-RES
[49] = system: T47D
[50] = system: OVCAR-4
[51] = system: MDA-MB-231
[52] = system: UACC-62

Measured: GI50

Cc1ncc([N+](=O)[O-])n1CCn1ccnc1[N+](=O)[O-]
inactive: [1] > 100 µM | [2] > 100 µM | [3] > 100 µM | [4] 34.8 µM | [5] > 100 µM | [6] > 100 µM | [7] > 100 µM | [8] 54.2 µM | [9] 15.7 µM | [10] > 100 µM | [11] > 100 µM | [12] > 100 µM | [13] 80.9 µM | [14] 61.7 µM | [15] 58.6 µM | [16] 74.6 µM | [17] > 100 µM | [18] > 100 µM | [19] > 100 µM | [20] 35.2 µM | [21] > 100 µM | [22] > 100 µM | [23] > 100 µM | [24] > 100 µM | [25] > 100 µM | [27] > 100 µM | [28] 61.9 µM | [29] > 100 µM | [30] > 100 µM | [31] > 100 µM | [32] 38.3 µM | [33] 72.1 µM | [34] > 100 µM | [35] > 100 µM | [36] > 100 µM | [37] > 100 µM | [38] > 100 µM | [39] > 100 µM | [40] > 100 µM
> 100 µM: [26]

CC(=O)OCC1OC(O[C@@H]2C[C@H]3C(C)(C)[C@H](OC(C)=O)CC[C@]3(C)[C@H]3CC[C@@H]4[C@]5(CC[C@@]4(C)[C@@]32C)O[C@@H]([C@H](O)C(C)(C)O)C[C@@H]5C)C(O)C(O)C1O (stereo partly drawn)
inactive: [41] 4.4 µM | [25] 6.05 µM | [42] 3.23 µM

CCCCCCCCNC(=S)N/C=C1\C(=O)Oc2ccccc2C1=O
inactive: [43] 19.3 µM | [2] 17.6 µM | [3] 23.8 µM | [4] 19.5 µM | [5] 14.4 µM | [44] 18.1 µM | [6] 11.4 µM | [7] 10 µM | [8] 17.2 µM | [10] 16.3 µM | [11] 13.6 µM | [12] 19.1 µM | [13] 14.4 µM | [14] 19.8 µM | [15] 22.5 µM | [17] 13.5 µM | [18] 14.1 µM | [45] 19.2 µM | [20] 28.2 µM | [46] 15 µM | [47] 7.05 µM | [22] 12.4 µM | [23] 7.19 µM | [48] 19 µM | [49] 65.8 µM | [41] 16 µM | [50] 13.2 µM | [28] 16 µM | [29] 11.1 µM | [31] 12.6 µM | [32] 15.3 µM | [34] 12.6 µM | [51] 15.9 µM | [35] 14.8 µM | [36] 16.1 µM | [52] 6.85 µM | [38] 21.1 µM | [39] 14.2 µM | [40] 15.6 µM
12.2 µM: [26]
